In data set [1] the test system is sleeping time induced by pentobarbital. As to the kind of experiment: Effect on the Sleeping Time Induced by Pentobarbital. The data set is classed as in vivo, male mice Swiss-Nos. The following applies: mouse, 25 mg/kg i.p. 30 minutes before 40 mg/kg i.p. sodium pentobarbital; increase vs control group. Here is the method: Effect on the Sleeping Time Induced by Pentobarbital The tests were carried out on male mice Swiss-Nos (Nossan, Correzzana, Milano) weighing 20-24 g, on an empty stomach for 18 hrs, according to the method described by R. Turner (Screening Methods in Pharmacology, Acad. Press, pg 70, 1965). […] The narcosis start was considered from the moment when the animal, lying on its back, lost its straightening reflex. The narcosis end was considered from the moment when the animal recovered such reflex. The carrier or the compounds under examination were administered by intraperitoneal route at the dose 25 mg/kg, 30 minutes before the pentobarbital administration. The resulting data are expressed as sleeping time increase percent in the treated animal group in comparison to the control animal group.

Data set [2] can be described thus: Evaluation of the Lethal Dose50 (LD50), acute toxicity. The conditions noted are these: in vivo, ip; mouse, 14 days observation, probit method. The protocol:
Evaluation of the Lethal Dose50 (LD50)
The tests were carried out on Swiss Nos (Nossan; Correzzana, Milano) mice weighing 18-20 g each. The animals, divided into groups of 10 animals each (5M+5F), were on an empty stomach for 18 hrs, with water ad libitum, and kept in cages with a grid floor. The compounds (I) were dissolved in water or suspended in 0.5% carboxymethylcellulose and intraperitoneally administered to the animals (10 ml/kg). The number of mice which died within the following 6 hours was recorded. Upon the expiry of the sixth hour, the animals were allowed to eat up to the end of the experimentation which lasted 14 days. During this period all the toxic symptoms and the mortality occurring were noted.
The animals which died during the test period and those which were sacrificed at the end of the same, underwent autopsy for a macroscopic examination of their main organs. The experimental data were statistically compared with the X^2 method and LD50 was extrapolated by the `probit` method.

The test system of data set [3] is histamine-induced mortality. Nature of the data set: Effect on the Mortality Induced by Histamine. The following applies: Cavia porcellus, po; guinea pig, p.o. 60 minutes before 1,25 mg/kg i.v. histamine dihydrochloride; amount inhibiting 50% of mortality. Type of data set: in vivo, male albino guinea pigs (Dunkin-Hartley). The protocol: Effect on the Mortality Induced by Histamine
The method described by Romer D. et al. (Med. Welt, 17, 791, 1966) was followed and the tests were carried out on male albino guinea pigs (Dunkin-Hartley), weighing 350-450 g, which were kept in cages with a grid floor, on an empty stomach for 24 hrs with water ad libitum.
The compounds under examination were dissolved in 0.5% carboxy methylcellulose and orally administered to the animals 60 minutes before that the same animals were intravenously treated with 1,25 mg/kg of histamine dihydrochloride dissolved in saline solution. In the control animals, treated with carboxymethyl cellulose, the histamine dihydrochloride solution, intravenously administered, induced a 100% mortality.
It was evaluated ED50 which corresponds to the amount of the compound able to inhibit 50% of the mortality induced by histamine: the estimation of ED50 was carried out applying the `probit` method (Finney D. J., Statistical methods in biological assay, pg 512, 1957).

Broadly, the LD50 is the dose expected to kill half of the subjects tested. As usually defined, the ED50 is the midpoint of the dose-response relation. A higher ED50 goes with weaker potency.

For `CC(C)(C)c1ccc(C(O)CCCN2CCC(C(O)(c3ccccc3)c3ccccc3)CC2)cc1` (stereo not drawn) [Terfenadine, reference compound], in data set [1], the “Increase of sleeping time induced by pentobarbital” value (“Increase of sleeping time induced” for short) is reported as 44%.
As to `CN(C)CCNc1nc2cccnc2n1Cc1ccccc1.Cl.Cl` [Example 2, 3-Benzyl-2-(2-dimethylaminoethylamino)-3H-imidazo[4,5-b]pyridine dihydrochloride], in data set [1], the “Increase of sleeping time induced” value is recorded as 76%. Moreover, the median lethal dose (LD50) at 336 h in data set [2] is over 100 mg/kg.
For `CN1CCN(c2nc3cccnc3n2Cc2ccccc2)CC1.O=C(O)/C=C/C(=O)O` [Example 1, 3-Benzyl-2-(4-methylpiperazin-1-yl)-3H-imidazo[4,5-b]pyridine fumarate], it took a dose of 0.033 mg/kg to reach the 50% effect level in data set [3] (ED50). Further, in data set [1], the “Increase of sleeping time induced” value came out at 183%. The LD50 at 336 h in data set [2] is over 100 mg/kg.

Values taken from patent US5023256A, “Pharmacologically active aminoimidazopyridines” (Dompe Farmaceutici S.p.A., priority 1989, dated 1991).
